Assay results from patent US20150141381A1, “TETRACYCLINE COMPOUNDS HAVING TARGET THERAPEUTIC ACTIVITIES” (Paratek Pharmaceuticals, Inc., priority 2001, published 2015).
Read-outs that look alike come from different tables or passages of the source.

Key:
[1] = tested on: S. aureus RN450; experiment: In Vitro Anti-Bacterial Activity Assay (MIC), gram positive; type: cell-based; conditions: Staphylococcus aureus, RN450, 18 h
[2] = tested on: E. coli mL308 225; experiment: In Vitro Anti-Bacterial Activity Assay (MIC), gram negative; type: cell-based; conditions: Escherichia coli, ML308225, 18 h
[3] = MIC class, Table 3, read-out: Antibiotic Activity Gram +
[4] = MIC class, Table 3, read-out: Antibiotic Activity Gram −
[5] = gram positive bacteria, read-out: Antibiotic Activity Gram + (MIC)
[6] = gram negative bacteria, read-out: Antibiotic Activity Gram − (MIC)
[7] = MIC class, Table 3 (Continued), read-out: Gram+ activity
[8] = MIC class, Table 3 (Continued), read-out: Gram− activity

| Structure (SMILES) | MIC [1, 3] | MIC [2, 4] | MIC [1, 5] | MIC [2, 6] | also measured |
| --- | --- | --- | --- | --- | --- |
| CC(C)COC(=O)NCc1ccc(O)c2c1C[C@H]1C[C@H]3[C@H](N(C)C)C(O)=C(C(N)=O)C(=O)[C@@]3(O)C(O)=C1C2=O [FT] | < 4 µg/mL | > 4 µg/mL | – | – | – |
| CN(C)[C@@H]1C(O)=C(C(N)=O)C(=O)[C@@]2(O)C(O)=C3C(=O)c4c(O)ccc(NC(=O)c5ccno5)c4C[C@H]3C[C@@H]12 [IM] | < 4 µg/mL | > 4 µg/mL | – | – | – |
| CN(C)c1cc(CN2CCC3CCCCC3C2)c(O)c2c1C[C@H]1C[C@H]3[C@H](N(C)C)C(O)=C(C(N)=O)C(=O)[C@@]3(O)C(O)=C1C2=O (some centres unmarked) | – | – | < 4 µg/mL | < 4 µg/mL | – |
| CN(C)[C@@H]1C(O)=C(C(N)=O)C(=O)[C@@]2(O)C(O)=C3C(=O)c4c(O)ccc(-c5ccncc5F)c4C[C@H]3C[C@@H]12 | – | – | < 4 µg/mL | < 4 µg/mL | – |
| CN(C)c1cc(-c2ccc(F)c(F)c2)c(O)c2c1C[C@H]1C[C@H]3[C@H](N(C)C)C(O)=C(C(N)=O)C(=O)[C@@]3(O)C(O)=C1C2=O | – | – | – | – | MIC [1, 7]: < 4 µg/mL; MIC [2, 8]: < 4 µg/mL |
| Cc1ccc(-c2ccc(O)c3c2C[C@H]2C[C@H]4[C@H](N(C)C)C(O)=C(C(N)=O)C(=O)[C@@]4(O)C(O)=C2C3=O)s1 | – | – | – | – | MIC [1, 7]: < 4 µg/mL; MIC [2, 8]: < 4 µg/mL |
| CN(C)C1C(O)=C(C(N)=O)C(=O)[C@@]2(O)C(O)=C3C(=O)c4c(O)ccc(CNC5CCCC5)c4C[C@H]3C[C@@H]12 (some centres unmarked) [NE] | < 4 µg/mL | < 4 µg/mL | – | – | – |
| CONCc1cc(CNCC(C)(C)C)c(O)c2c1C[C@H]1C[C@H]3[C@H](N(C)C)C(O)=C(C(N)=O)C(=O)[C@@]3(O)C(O)=C1C2=O | – | – | < 4 µg/mL | > 4 µg/mL | – |
| CN(C)[C@@H]1C(O)=C(C(N)=O)C(=O)[C@@]2(O)C(O)=C3C(=O)c4c(O)c(CS(C)(=O)=O)cc(I)c4C[C@H]3C[C@@H]12 | – | – | < 4 µg/mL | > 4 µg/mL | – |
| CN(C)[C@@H]1C(O)=C(C(N)=O)C(=O)[C@@]2(O)C(O)=C3C(=O)c4c(O)ccc(C(=O)CN5CCOCC5)c4C[C@H]3C[C@@H]12 | – | – | < 4 µg/mL | > 4 µg/mL | – |
| CN(C)[C@@H]1C(O)=C(C(N)=O)C(=O)[C@@]2(O)C(O)=C3C(=O)c4c(O)ccc(/C=C/c5ccc(Br)cc5)c4C[C@H]3C[C@@H]12 [BL] | < 4 µg/mL | > 4 µg/mL | – | – | – |
| CCN(CC)Cc1ccc(OC)c(-c2ccc(O)c3c2C[C@H]2C[C@H]4[C@@H](N(C)C)C(O)=C(C(N)=O)C(=O)[C@@]4(O)C(O)=C2C3=O)c1 [J] | < 4 µg/mL | < 4 µg/mL | – | – | – |
| CN(C)[C@@H]1C(O)=C(C(N)=O)C(=O)[C@@]2(O)C(O)=C3C(=O)c4c(O)ccc(-c5ccc(/C=N/O)o5)c4C[C@H]3C[C@@H]12 [NA] | < 4 µg/mL | < 4 µg/mL | – | – | – |
| CC(=O)OCC(=O)Nc1ccc(-c2ccc(O)c3c2C[C@H]2C[C@H]4[C@H](N(C)C)C(O)=C(C(N)=O)C(=O)[C@@]4(O)C(O)=C2C3=O)cc1 | – | – | < 4 µg/mL | > 4 µg/mL | – |
| CCCCCCc1ccc(O)c2c1C[C@H]1C[C@H]3[C@H](N(C)C)C(O)=C(C(N)=O)C(=O)[C@@]3(O)C(O)=C1C2=O | – | – | < 4 µg/mL | < 4 µg/mL | – |
| CN(C)[C@@H]1C(O)=C(C(N)=O)C(=O)[C@@]2(O)C(O)=C3C(=O)c4c(O)c(-c5ccc6c(c5)OCO6)cc(-c5ccc6c(c5)OCO6)c4C[C@H]3C[C@@H]12 | – | – | < 4 µg/mL | > 4 µg/mL | – |
| CN(C)C1C(O)=C(C(N)=O)C(=O)[C@@]2(O)C(O)=C3C(=O)c4c(O)c(CNCC(C)(C)C)cc(CNCC(C)(C)C)c4C[C@H]3C[C@@H]12 (some centres unmarked) [MU] | < 4 µg/mL | < 4 µg/mL | – | – | – |
| COc1ccc(C#Cc2ccc(O)c3c2C[C@H]2C[C@H]4[C@H](N(C)C)C(O)=C(C(N)=O)C(=O)[C@@]4(O)C(O)=C2C3=O)cc1 | – | – | – | – | MIC [1, 7]: < 4 µg/mL; MIC [2, 8]: < 4 µg/mL |
| CCCCOC(=O)Nc1cc(N(C)C)c2c(c1O)C(=O)C1=C(O)[C@]3(O)C(=O)C(C(N)=O)=C(O)[C@@H](N(C)C)[C@@H]3C[C@@H]1C2 | – | – | < 4 µg/mL | < 4 µg/mL | – |
